Test results published in patent US20040018991A1, “Topical treatment for mastalgia” (priority 2000, published 2004).

Assay: healing test: topical 4-hydroxy-androstenedione cream applied to the breasts of patients with mastalgia
Format: in vivo, human
Source text: Treatments acting with 4-hydroxy-androstenedione for mastalgia syndrome are described, wherein instead of 4-hydroxy-androstenedione, other aromatase inhibitors may be used.
Findings: Tension-related pains in both breasts occurring 3 to 5 days before each menstruation, apparently bundled shooting into the breast nipples. Then slowly decreasing pains, symptoms and signs and tension states during the menstruation period until about the 10th day after onset of menstruation.
A cream treated with 0.5 wt. % of 4-hydroxy-androstenedione was used (0.5% of 4OH-androstenedione introduced into 100 ml of ash-based cream). 4 g were administered daily, and specifically 2 g applied externally to each breast and carefully massaged in.
Start of healing test about 3 weeks before the period.
Continuation of the healing test with daily administration of 4-OH-androstenedione cream 0.5% strength.
Findings: For years, severe swelling and tension feeling occurring in each case 3-5 days before menstruation with diffuse pain symptoms and signs radiating into the thorax, which is almost unbearable until the onset of menstruation. For years, unable to work 1-3 days per month due to these pains. Disappearance of symptoms and signs only on 8th-12th day after onset of menstruation.
Healing test using 1% strength 4-OH-androstenedione cream (1 g of 4-OH-androstenedione introduced into 100 ml of ash-based cream).
Dose 1×daily 4 g, in each case 2 g applied to each breast.
The start of the healing test took place about 2 weeks before onset of menstruation.
Continuation of the healing test using 0.5% strength 4-OH-androstenedione cream (0.5 g of 4-OH-androstenedione introduced into 100 ml of ash-based cream) 4 g daily, that is 2 g applied to each breast.

[1] = Example 2, 1% strength cream, 1x daily 4 g, subsequent period 2
[2] = Example 2, continuation with 0.5% strength cream, 4 g daily, subsequent periods

C[C@]12CCC(=O)C(O)=C1CC[C@@H]1[C@@H]2CC[C@]2(C)C(=O)CC[C@@H]12 [4-hydroxy-androstenedione, 4-hydroxyandrostenedione]
tension pain (Example 1, person, 0.5 wt. % cream, 4 g daily (2 g each breast), first subsequent period): Significantly reduced tension pain
pain (Example 1, 0.5% strength cream daily, second subsequent period): complete freedom from pain
course of symptoms and signs (Example 1, 0.5 wt. % cream, 4 g daily, first subsequent period): symptoms and signs subsided more rapidly
time to pain-free after start of menstruation (Example 1, 0.5 wt. % cream, 4 g daily, first subsequent period (before treatment until about the 10th day)): 5 days
course of mastalgia (Example 2, person, 1% strength cream, 1x daily 4 g, subsequent period 1): somewhat blander course
inability to work (Example 2, 1% strength cream, 1x daily 4 g, subsequent period 1 (before treatment 1-3 days per month)): 1 days
inability to work [1]: no inability to work
pain symptoms and signs [1]: considerably lower pain symptoms and signs
swelling and tension feeling [1]: Significantly lower swelling and tension feeling
mastopathy-related inability to work [2]: no mastopathy-related inability to work
pain [2]: practically pain-free
swelling and tension feelings [2]: Hardly any swelling and tension feelings
